In PubChem BioAssay (NCI):
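GI50 is the concentration that inhibits growth by half. TGI: concentration producing complete growth inhibition.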

Columns and labels:
Assay in all cases: NCI anticancer screen, dose series, 384-well format
[1] = system: SF-268 CNS
[2] = system: ACHN renal
[3] = system: UACC-62 melanoma
[4] = system: SK-MEL-28 melanoma
[5] = system: MDA-MB-231 breast
[6] = system: MCF7 breast
[7] = system: HL-60(TB) leukemia
[8] = system: IGROV1 ovarian
[9] = system: A498 renal
[10] = system: COLO 205 colon
[11] = system: NCI-H226 lung
[12] = system: EKVX NSCLC
[13] = system: MDA-MB-468 breast
[14] = system: OVCAR-8 ovarian
[15] = system: NCI-H522 lung
[16] = system: NCI-H23 lung
[17] = system: SW-620 colon
[18] = system: NCI-H460 NSCLC
[19] = system: HOP-92 NSCLC
[20] = system: 786-0 renal
[21] = system: CAKI-1 renal
[22] = system: RXF 393 renal
[23] = system: HOP-62 NSCLC
[24] = system: OVCAR-5 ovarian
[25] = system: U251 glioblastoma
[26] = system: DU-145 prostate
[27] = system: HS 578T breast
[28] = system: SR leukemia
[29] = system: PC-3 prostate
[30] = system: MOLT-4 leukemia
[31] = system: SNB-75 CNS
[32] = system: RPMI-8226 leukemia
[33] = system: A549 NSCLC
[34] = system: SF-539 CNS
[35] = system: M14 melanoma
[36] = system: BT-549 breast
[37] = system: SN12C renal
[38] = system: SF-295 CNS
[39] = system: OVCAR-3 ovarian
[40] = system: OVCAR-4 ovarian
[41] = system: T-47D breast
[42] = system: NCI-H322M lung
[43] = system: HT29 colon
[44] = system: KM12 colon
[45] = system: MDA-MB-435 melanoma
[46] = system: NCI/ADR-RES ovarian
[47] = system: HCC-2998 colon
[48] = system: SK-MEL-2 melanoma
[49] = system: CCRF-CEM leukemia
[50] = system: UACC-257 melanoma
[51] = system: HCT-15 colon
[52] = system: SNB-19 CNS
[53] = system: SK-MEL-5 melanoma
[54] = system: MALME-3M melanoma
[55] = system: TK-10 renal
[56] = system: SK-OV-3 ovarian

O=P(O)(O)C(O)(Cn1ccnc1)P(=O)(O)O
GI50 [1]: > 100 µM | TGI [1]: > 100 µM | GI50 [2]: > 100 µM | TGI [2]: > 100 µM | GI50 [3]: > 100 µM | TGI [3]: > 100 µM | GI50 [4]: > 100 µM | TGI [4]: > 100 µM | GI50 [5]: > 100 µM | TGI [5]: > 100 µM | GI50 [6]: > 100 µM | TGI [6]: > 100 µM | GI50 [7]: > 100 µM | TGI [7]: > 100 µM | GI50 [8]: > 100 µM | TGI [8]: > 100 µM | GI50 [9]: > 100 µM | TGI [9]: > 100 µM | GI50 [10]: > 100 µM | TGI [10]: > 100 µM | GI50 [11]: > 100 µM | TGI [11]: > 100 µM | GI50 [12]: > 100 µM | TGI [12]: > 100 µM | GI50 [13]: > 100 µM | TGI [13]: > 100 µM | GI50 [14]: > 100 µM | TGI [14]: > 100 µM | GI50 [15]: > 100 µM | TGI [15]: > 100 µM | GI50 [16]: > 100 µM | TGI [16]: > 100 µM | GI50 [17]: > 100 µM | TGI [17]: > 100 µM | GI50 [18]: > 100 µM | TGI [18]: > 100 µM | GI50 [19]: > 100 µM | TGI [19]: > 100 µM | GI50 [20]: > 100 µM | TGI [20]: > 100 µM | GI50 [21]: > 100 µM | TGI [21]: > 100 µM | GI50 [22]: > 100 µM | TGI [22]: > 100 µM | GI50 [23]: > 100 µM | TGI [23]: > 100 µM | GI50 [24]: > 100 µM | TGI [24]: > 100 µM | GI50 [25]: > 100 µM | TGI [25]: > 100 µM | GI50 [26]: > 100 µM | TGI [26]: > 100 µM | GI50 [27]: > 100 µM | TGI [27]: > 100 µM | GI50 [28]: > 100 µM | TGI [28]: > 100 µM | GI50 [29]: > 100 µM | TGI [29]: > 100 µM | GI50 [30]: > 100 µM | TGI [30]: > 100 µM | GI50 [31]: > 100 µM | TGI [31]: > 100 µM | GI50 [32]: > 100 µM | TGI [32]: > 100 µM | GI50 [33]: > 100 µM | TGI [33]: > 100 µM | GI50 [34]: > 100 µM | TGI [34]: > 100 µM | GI50 [35]: > 100 µM | TGI [35]: > 100 µM | GI50 [36]: > 100 µM | TGI [36]: > 100 µM | GI50 [37]: > 100 µM | TGI [37]: > 100 µM | GI50 [38]: > 100 µM | TGI [38]: > 100 µM | GI50 [39]: > 100 µM | TGI [39]: > 100 µM | GI50 [40]: > 100 µM | TGI [40]: > 100 µM | GI50 [41]: > 100 µM | TGI [41]: > 100 µM | GI50 [42]: > 100 µM | TGI [42]: > 100 µM | GI50 [43]: > 100 µM | TGI [43]: > 100 µM | GI50 [44]: > 100 µM | TGI [44]: > 100 µM | GI50 [45]: > 100 µM | TGI [45]: > 100 µM | GI50 [46]: > 100 µM | TGI [46]: > 100 µM | GI50 [47]: > 100 µM | TGI [47]: > 100 µM | GI50 [48]: > 100 µM | TGI [48]: > 100 µM | GI50 [49]: > 100 µM | TGI [49]: > 100 µM | GI50 [50]: > 100 µM | TGI [50]: > 100 µM | GI50 [51]: > 100 µM | TGI [51]: > 100 µM | GI50 [52]: > 100 µM | TGI [52]: > 100 µM | GI50 [53]: > 100 µM | TGI [53]: > 100 µM | GI50 [54]: > 100 µM | TGI [54]: > 100 µM | GI50 [55]: > 100 µM | TGI [55]: > 100 µM | GI50 [56]: > 100 µM | TGI [56]: > 100 µM
